According to ChEMBL document CHEMBL1921734 (Bioorg Med Chem, 2011):

Tests used:
[1] = target: T1, Steroid 17-alpha-hydroxylase/17,20 lyase (Rattus norvegicus, UniProt P11715); assay: Inhibition of 17,20-lyase activity of Sprague-Dawley rat testicular microsomal CYP17A1 using [1,2-3H]-17a-hydroxyprogesterone as substrate after 15 mins by TLC analysis; design: species or system Testis
T1 sequence (P11715 whole entry): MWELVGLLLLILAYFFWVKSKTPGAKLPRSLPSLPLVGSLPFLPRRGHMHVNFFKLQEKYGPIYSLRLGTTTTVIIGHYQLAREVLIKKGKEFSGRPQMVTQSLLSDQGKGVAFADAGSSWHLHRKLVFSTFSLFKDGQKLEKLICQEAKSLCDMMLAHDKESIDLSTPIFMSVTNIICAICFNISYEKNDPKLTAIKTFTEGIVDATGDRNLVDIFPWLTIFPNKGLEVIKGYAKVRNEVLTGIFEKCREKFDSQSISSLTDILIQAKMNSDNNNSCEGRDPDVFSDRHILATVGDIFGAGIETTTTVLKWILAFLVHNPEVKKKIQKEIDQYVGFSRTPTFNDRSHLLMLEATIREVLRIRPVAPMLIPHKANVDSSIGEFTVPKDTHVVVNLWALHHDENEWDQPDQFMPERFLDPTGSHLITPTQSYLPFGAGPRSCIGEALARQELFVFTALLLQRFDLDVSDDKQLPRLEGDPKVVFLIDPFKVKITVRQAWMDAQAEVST

[2] = target: T2, Steroid 17-alpha-hydroxylase/17,20 lyase (Homo sapiens, UniProt P05093); assay: Inhibition of 17,20-lyase of recombinant human CYP17A1 using [1,2-3H]-17a-hydroxypregnenolone as substrate after 15 mins by TLC analysis
T2 sequence (P05093 whole entry): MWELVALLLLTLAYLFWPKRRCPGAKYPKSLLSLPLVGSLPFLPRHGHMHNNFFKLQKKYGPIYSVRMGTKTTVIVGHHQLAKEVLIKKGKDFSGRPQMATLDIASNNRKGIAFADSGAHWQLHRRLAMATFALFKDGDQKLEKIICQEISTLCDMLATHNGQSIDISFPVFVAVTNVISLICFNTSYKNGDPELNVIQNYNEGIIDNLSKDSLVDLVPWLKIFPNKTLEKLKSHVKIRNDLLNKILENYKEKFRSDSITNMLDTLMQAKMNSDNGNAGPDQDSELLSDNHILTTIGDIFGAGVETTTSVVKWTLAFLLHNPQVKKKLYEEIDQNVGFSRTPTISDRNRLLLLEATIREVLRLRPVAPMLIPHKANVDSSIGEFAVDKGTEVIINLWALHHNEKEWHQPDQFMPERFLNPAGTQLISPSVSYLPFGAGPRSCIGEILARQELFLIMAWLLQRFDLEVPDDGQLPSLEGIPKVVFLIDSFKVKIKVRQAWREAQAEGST

[3] = target: T3, Cytochrome P450 3A4 (Homo sapiens, UniProt P08684); assay: Inhibition of recombinant human CYP3A4 assessed as conversion of testosterone into 6-hydroxytestosterone after 30 mins by HPLC analysis; assay type: ADME
T3 sequence (P08684 whole entry): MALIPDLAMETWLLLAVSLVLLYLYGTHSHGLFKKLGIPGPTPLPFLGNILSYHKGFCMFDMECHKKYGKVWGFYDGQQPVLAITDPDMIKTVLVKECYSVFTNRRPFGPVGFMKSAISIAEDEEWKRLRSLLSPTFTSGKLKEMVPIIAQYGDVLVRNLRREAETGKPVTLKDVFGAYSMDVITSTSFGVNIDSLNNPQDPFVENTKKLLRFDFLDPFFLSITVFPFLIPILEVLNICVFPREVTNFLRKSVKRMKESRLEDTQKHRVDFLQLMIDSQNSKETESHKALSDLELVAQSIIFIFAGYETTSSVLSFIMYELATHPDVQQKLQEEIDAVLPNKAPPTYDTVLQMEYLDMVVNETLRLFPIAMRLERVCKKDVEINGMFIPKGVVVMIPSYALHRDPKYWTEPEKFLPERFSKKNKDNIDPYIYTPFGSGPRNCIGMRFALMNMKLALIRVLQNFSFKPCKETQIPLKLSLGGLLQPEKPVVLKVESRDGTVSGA

[4] = Inhibition of Sprague-Dawley rat adrenal gland 11-hydroxylase using [1,2-3H]-hydroxy-11-deoxycorticosterone as substrate after 30 mins by TLC analysis; assay type: tissue-based
[5] = test system: Cynomolgus monkey; assay: Reduction of serum DHEA level in cynomolgus monkey at 1 mg/kg, po after 5 hrs by radioimmunoassay (reference value: 88.6 +/- 4.4%); assay type: functional, Macaca fascicularis; design: scale not given: the % may be the effect or the level left
[6] = test system: Cynomolgus monkey; assay: Reduction of serum DHEA level in cynomolgus monkey at 1 mg/kg, po after 10 hrs by radioimmunoassay (reference value: 7.2 +/- 0.99%); assay type: functional, Macaca fascicularis; design: scale not given: the % may be the effect or the level left
[7] = target: T4, Cytochrome P450 1A2 (Homo sapiens, UniProt P05177); assay: Inhibition of human B-lymphoblastoid cell microsomal CYP1A2 assessed as 7-ethoxyresorufin O-deethylation preincubated for 5 mins with substrate; assay type: ADME
T4 sequence (P05177 whole entry): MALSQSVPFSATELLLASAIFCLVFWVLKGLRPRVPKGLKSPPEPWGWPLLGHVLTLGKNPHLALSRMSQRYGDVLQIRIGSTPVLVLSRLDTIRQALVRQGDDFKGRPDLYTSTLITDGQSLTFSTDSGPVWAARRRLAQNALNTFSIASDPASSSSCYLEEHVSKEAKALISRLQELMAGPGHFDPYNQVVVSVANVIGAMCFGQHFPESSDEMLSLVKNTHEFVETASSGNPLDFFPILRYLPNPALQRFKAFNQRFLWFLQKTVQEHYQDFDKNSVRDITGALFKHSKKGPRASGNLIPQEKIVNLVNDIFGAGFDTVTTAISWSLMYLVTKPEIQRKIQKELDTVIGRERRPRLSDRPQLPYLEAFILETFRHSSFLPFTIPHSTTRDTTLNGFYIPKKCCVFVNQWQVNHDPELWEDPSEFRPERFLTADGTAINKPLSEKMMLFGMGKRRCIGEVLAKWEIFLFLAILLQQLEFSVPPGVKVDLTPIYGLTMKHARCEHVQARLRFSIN

[8] = target: T5, Cytochrome P450 2C8 (Homo sapiens, UniProt P10632); assay: Inhibition of human B-lymphoblastoid cell microsomal CYP2C8 assessed as Tolbutamide hydroxylation preincubated for 5 mins with substrate; assay type: ADME
T5 sequence (P10632 whole entry): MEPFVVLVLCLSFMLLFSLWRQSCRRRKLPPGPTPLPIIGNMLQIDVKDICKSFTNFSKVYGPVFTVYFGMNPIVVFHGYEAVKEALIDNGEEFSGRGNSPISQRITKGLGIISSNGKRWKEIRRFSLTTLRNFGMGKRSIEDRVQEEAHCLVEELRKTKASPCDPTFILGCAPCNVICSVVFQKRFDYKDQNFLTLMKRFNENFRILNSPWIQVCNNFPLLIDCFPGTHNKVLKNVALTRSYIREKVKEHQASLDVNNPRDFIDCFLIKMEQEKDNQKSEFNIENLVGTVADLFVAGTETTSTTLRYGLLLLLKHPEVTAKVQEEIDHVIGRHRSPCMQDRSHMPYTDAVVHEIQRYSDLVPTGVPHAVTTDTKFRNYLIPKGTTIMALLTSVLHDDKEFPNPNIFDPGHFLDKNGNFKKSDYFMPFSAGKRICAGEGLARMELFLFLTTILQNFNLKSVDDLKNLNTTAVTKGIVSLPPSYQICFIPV

[9] = target: Cytochrome P450 2D6 (Homo sapiens, UniProt P10635); assay: Inhibition of human B-lymphoblastoid cell microsomal CYP2D6 assessed as (+)-bufuralol 1'-hydroxylation preincubated for 5 mins with substrate; assay type: ADME
Sequence of Cytochrome P450 2D6 (P10635 whole entry): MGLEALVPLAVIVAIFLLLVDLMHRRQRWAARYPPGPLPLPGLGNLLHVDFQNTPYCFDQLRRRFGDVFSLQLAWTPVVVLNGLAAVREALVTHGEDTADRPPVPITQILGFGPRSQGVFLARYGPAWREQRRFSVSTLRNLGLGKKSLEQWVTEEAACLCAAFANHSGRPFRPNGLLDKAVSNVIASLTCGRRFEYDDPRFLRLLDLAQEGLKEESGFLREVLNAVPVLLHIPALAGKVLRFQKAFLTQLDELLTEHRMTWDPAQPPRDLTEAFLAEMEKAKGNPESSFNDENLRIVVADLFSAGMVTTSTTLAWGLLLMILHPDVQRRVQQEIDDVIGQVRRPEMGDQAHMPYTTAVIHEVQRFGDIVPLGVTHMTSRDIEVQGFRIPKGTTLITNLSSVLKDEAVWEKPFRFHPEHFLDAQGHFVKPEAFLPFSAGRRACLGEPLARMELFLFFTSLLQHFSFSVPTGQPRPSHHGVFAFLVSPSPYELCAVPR

[10] = test system: Cynomolgus monkey; assay: Reduction of serum testosterone level in cynomolgus monkey at 1 mg/kg, po after 8 hrs by radioimmunoassay (reference value: 101 +/- 54%); assay type: functional, Macaca fascicularis; design: scale not given: the % may be the effect or the level left
[11] = test system: Cynomolgus monkey; assay: Reduction of serum DHEA level in cynomolgus monkey at 1 mg/kg, po after 8 hrs by radioimmunoassay (reference value: 54 +/- 25%); assay type: functional, Macaca fascicularis; design: scale not given: the % may be the effect or the level left
[12] = test system: Cynomolgus monkey; assay: Reduction of serum testosterone level in cynomolgus monkey at 1 mg/kg, po after 2 hrs by radioimmunoassay (reference value: 90 +/- 16.6%); assay type: functional, Macaca fascicularis; design: scale not given: the % may be the effect or the level left
[13] = test system: Cynomolgus monkey; assay: Reduction of serum testosterone level in cynomolgus monkey at 1 mg/kg, po after 5 hrs by radioimmunoassay (reference value: 63 +/- 19.2%); assay type: functional, Macaca fascicularis; design: scale not given: the % may be the effect or the level left
[14] = test system: Cynomolgus monkey; assay: Reduction of serum testosterone level in cynomolgus monkey at 1 mg/kg, po after 10 hrs by radioimmunoassay (reference value: 269.8 +/- 94.5%); assay type: functional, Macaca fascicularis; design: scale not given: the % may be the effect or the level left
[15] = test system: Cynomolgus monkey; assay: Reduction of serum DHEA level in cynomolgus monkey at 1 mg/kg, po after 2 hrs by radioimmunoassay (reference value: 97.9 +/- 22.3%); assay type: functional, Macaca fascicularis; design: scale not given: the % may be the effect or the level left
[16] = test system: Cynomolgus monkey; assay: Reduction of serum testosterone level in cynomolgus monkey at 1 mg/kg, po after 8 hrs by radioimmunoassay (reference value: 296 +/- 277%); assay type: functional, Macaca fascicularis; design: scale not given: the % may be the effect or the level left
[17] = test system: Cynomolgus monkey; assay: Reduction of serum DHEA level in cynomolgus monkey at 1 mg/kg, po after 8 hrs by radioimmunoassay (reference value: 25 +/- 6.2%); assay type: functional, Macaca fascicularis; design: scale not given: the % may be the effect or the level left
[18] = target: T2, Steroid 17-alpha-hydroxylase/17,20 lyase; assay: Inhibition of 17,20-lyase activity of human CYP17A1
[19] = target: T3, Cytochrome P450 3A4; assay: Inhibition of CYP3A4; assay type: ADME

| SMILES | IC50 [1] [nM] | IC50 [2] [nM] | IC50 [3] [nM] | IC50 [4] [nM] | other results |
| --- | --- | --- | --- | --- | --- |
| CNC(=O)c1ccc2cc(C3(O)c4cncn4CC3(C)C)ccc2c1 (racemic) | 110 | 88 | 3200 | 520 |  |
| CCNC(=O)c1ccc2cc(C3(O)CCn4cncc43)ccc2c1 (racemic) | 110 | 190 | > 10000 | > 1000 |  |
| CNC(=O)c1ccc2cc(C3(O)CCn4cncc43)ccc2c1 (racemic) |  |  |  | > 1000 |  |
| CNC(=O)c1ccc2cc([C@@]3(O)CCn4cncc43)ccc2c1 [ORTERONEL] | 48 |  |  | > 1000 | Activity [5]: 32.8%; Activity [6]: 7.6%; IC50 [7]: 28000 nM; IC50 [8]: > 30000 nM; IC50 [9]: > 30000 nM; Activity [10]: 30%; Activity [11]: 12%; Activity [12]: 75.9%; Activity [13]: 14.2%; Activity [14]: 55.6%; Activity [15]: 61.1% |
| CNC(=O)c1ccc2cc(C(C)(O)c3cncn3C)ccc2c1 (racemic) | > 1000 | 410 | 6900 | > 1000 |  |
| NC(=O)c1ccc2cc(C3(O)CCn4cncc43)ccc2c1 (racemic) | 24 | 29 | > 10000 | 100 |  |
| CC(C)NC(=O)c1ccc2cc(C3(O)CCn4cncc43)ccc2c1 (racemic) | 160 | 400 | > 10000 | > 1000 |  |
| CNC(=O)c1ccc2cc(C3CCn4cncc43)ccc2c1 (racemic) | 15 | 13 | < 1000 | 290 |  |
| CNC(=O)c1ccc2cc([C@]3(O)CCn4cncc43)ccc2c1 | 180 |  |  | > 1000 | Activity [16]: 258%; Activity [17]: 91% |
| CNC(=O)c1ccc2cc([C@](O)(c3c[nH]cn3)C(C)C)ccc2c1 |  |  |  |  | IC50 [18]: 5.5 nM; IC50 [19]: 7800 nM |
| O=C(NC1CC1)c1ccc2cc(C3(O)CCn4cncc43)ccc2c1 (racemic) | 100 | 290 | > 10000 | > 1000 |  |
| CNC(=O)c1ccc2cc(C(O)(c3c[nH]cn3)C(C)C)ccc2c1 (racemic) |  |  |  | > 1000 |  |
